# According to US20240099214A1, “PLANT DEFENCE GENE EXPRESSION” (UPL Corporation Limited, priority 2021, published 2024):
# Assays:
# [1] = test system: Avr/Cf9 rapidly elicited protein 75 (gene 5, Solyc11g010250.1); assay: qRT-PCR expression of gene 5 in tomato leaves; type: in vivo, Tomato ecotype corbarino; design: key: relative expression normalized to a-tubulin housekeeping gene
# Description: (§1) Tomato ecotype “corbarino” reported to be susceptible to TSWV infection was used in the experiment. Plants were grown in pots in a climatic chamber with a photoperiod of 16/8 hour at 25° C.
# (§2) The viral strain (TSWV PV PV-0393) was utilized in the experiment. The virus was mechanically inoculated and propagated on tomato “corbarino”. The inoculum was prepared in an ice-cooled mortar grounding 1 gr of infected tomato tissue in 10 ml of Na-phosphate buffer 0.01M. The fresh prepared inoculum was stored in ice before use. Tomato plants at BBCH16 were dusted with Carborundum 600 mesh and selected leaves were rubbed with some droplets of inoculum. After 5 min. plants were sprayed with sterile water to remove the excess of inoculum and preserve the cell turgor.
# (§3) Four treatments were compared: i) Mock inoculated; ii) TSWV; iii) 0.25% Laminarin; iv) 0.25% Laminarin+TSWV. In the last treatment the virus was inoculated 24 hrs after the laminarin application.
# (§4) Total RNA was extracted from systemic infected tomato leaves by using the Quick-RNA Plant Kit (Zymo Research) following the manufacturer instructions. The extractions were carried out using three plants after 12 h, 24 h, 48 h, 72 h, 7 days after inoculation. Leaves were instantly frozen in liquid nitrogen after cutting to avoid any deterioration of the sample as well as any defense reaction. The RNA concentration was quantified by measuring the absorbance at 260 nm using a Nanodrop 2000 (Thermofisher). The purity of all of the RNA samples was assessed at an absorbance ratio of OD260/280 and OD260/230, while its structural integrity was checked by agarose gel electrophoresis. Only high-quality RNA with OD 260/280 and OD 260/230>2 was used for subsequent steps. Single-stranded cDNA was synthesized from 1 μg of total RNA using an iScript™ Select cDNA Synthesis Kit and random hexamers as primers (Bio-Rad, Milan, Italy), according to the manufacturer's instructions. Three biological replicates were created from the 3 leaves collected to test 15 genes. Alpha tubulin was used as reference gene.
# (§5) qPCR reactions were performed with BioRad (Applied Biosystems, Foster City, CA, USA) using SYBR R Green. Each reaction was performed in 20 μl containing 10 μl of 2× Power SYBR Green PCR Master Mix (Life Technologies), 0.2-0.3 μM primers and cDNA samples diluted 1:20. Each qPCR reaction was performed in triplicate. Reactions were run using the cycling parameter described previously (Reid et al., 2006) and the qPCR data were analyzed by the Ct method (Pfaffl, 2001). In order to analyze the qPCR data, a-tubulin gene was used as housekeeping to determine the relative expression level of the other genes analyzed in this work. For the determination of qPCR efficiency of each primer pairs, a standard curve was performed using the following cDNA dilutions: 1:4, 1:16, 1:64; 1:256 and 1:1024. Every measurement was made in triplicate. The corresponding qPCR efficiencies (E) were calculated for every primer pair with the software 7300 System SDS software (Applied Biosystems, Foster City, CA, USA) according to the equation E=(10−1/slope−1)×100 (Rutledge and Stewart, 2008).
# (§6) The significance of the differences between the gene expressions levels were compared by one-way ANOVA (p=0.01) and the means were separated by Tukey post-hoc test using SPSS ver.26 ([…]).
# [2] = test system: Tropinone reductase homolog at 1g07440-like (gene 10, Solyc06g083470.2); assay: qRT-PCR expression of gene 10 in tomato leaves; type: in vivo, Tomato ecotype corbarino; design: key: relative expression normalized to a-tubulin housekeeping gene
# Description: as §1, §2, §3, §4, §5, §6
substance,measurement,setting,value
laminarin,RQ1,"[1]; 12 hr, Laminarin + virus",0.8046
same,RQ2,"[1]; 12 hr, Laminarin + virus",10.612
same,RQ3,"[1]; 12 hr, Laminarin + virus",11.537
same,RQ mean,"[1]; 12 hr, Laminarin + virus",10.065
same,RQ1,"[1]; 12 hr, Laminarin alone",0.7901
same,RQ2,"[1]; 12 hr, Laminarin alone",11.285
same,RQ3,"[1]; 12 hr, Laminarin alone",0.9408
same,RQ mean,"[1]; 12 hr, Laminarin alone",0.9531
same,RQ1,"[1]; 24 hr, Laminarin + virus",10.601
same,RQ2,"[1]; 24 hr, Laminarin + virus",12.023
same,RQ3,"[1]; 24 hr, Laminarin + virus",0.9700
same,RQ mean,"[1]; 24 hr, Laminarin + virus",10.775
same,RQ1,"[1]; 24 hr, Laminarin alone",11.135
same,RQ2,"[1]; 24 hr, Laminarin alone",12.189
same,RQ3,"[1]; 24 hr, Laminarin alone",0.9994
same,RQ mean,"[1]; 24 hr, Laminarin alone",11.106
same,RQ1,"[1]; 48 hr, Laminarin + virus",0.8610
same,RQ2,"[1]; 48 hr, Laminarin + virus",13.586
same,RQ3,"[1]; 48 hr, Laminarin + virus",10.405
same,RQ mean,"[1]; 48 hr, Laminarin + virus",10.867
same,RQ1,"[1]; 48 hr, Laminarin alone",0.9204
same,RQ2,"[1]; 48 hr, Laminarin alone",12.321
same,RQ3,"[1]; 48 hr, Laminarin alone",10.531
same,RQ mean,"[1]; 48 hr, Laminarin alone",10.685
same,RQ1,"[1]; 72 hr, Laminarin + virus",17.401
same,RQ2,"[1]; 72 hr, Laminarin + virus",30.624
same,RQ3,"[1]; 72 hr, Laminarin + virus",25.095
same,RQ mean,"[1]; 72 hr, Laminarin + virus",24.373
same,RQ1,"[1]; 72 hr, Laminarin alone",22.196
same,RQ2,"[1]; 72 hr, Laminarin alone",23.867
same,RQ3,"[1]; 72 hr, Laminarin alone",23.473
same,RQ mean,"[1]; 72 hr, Laminarin alone",23.179
same,RQ1,"[2]; 12 hr, Laminarin + virus",11.314
same,RQ2,"[2]; 12 hr, Laminarin + virus",15.111
same,RQ3,"[2]; 12 hr, Laminarin + virus",14.571
same,RQ mean,"[2]; 12 hr, Laminarin + virus",13.665
same,RQ1,"[2]; 12 hr, Laminarin alone",10.134
same,RQ2,"[2]; 12 hr, Laminarin alone",11.716
same,RQ3,"[2]; 12 hr, Laminarin alone",14.046
same,RQ mean,"[2]; 12 hr, Laminarin alone",11.966
same,RQ1,"[2]; 24 hr, Laminarin + virus",12.827
same,RQ2,"[2]; 24 hr, Laminarin + virus",10.653
same,RQ3,"[2]; 24 hr, Laminarin + virus",14.308
same,RQ mean,"[2]; 24 hr, Laminarin + virus",12.596
same,RQ1,"[2]; 24 hr, Laminarin alone",13.673
same,RQ2,"[2]; 24 hr, Laminarin alone",15.462
same,RQ3,"[2]; 24 hr, Laminarin alone",14.026
same,RQ mean,"[2]; 24 hr, Laminarin alone",14.387
same,RQ1,"[2]; 48 hr, Laminarin + virus",10.393
same,RQ2,"[2]; 48 hr, Laminarin + virus",11.439
same,RQ3,"[2]; 48 hr, Laminarin + virus",11.568
same,RQ mean,"[2]; 48 hr, Laminarin + virus",11.133
same,RQ1,"[2]; 48 hr, Laminarin alone",14.550
same,RQ2,"[2]; 48 hr, Laminarin alone",13.402
same,RQ3,"[2]; 48 hr, Laminarin alone",19.692
same,RQ mean,"[2]; 48 hr, Laminarin alone",15.882
same,RQ1,"[2]; 72 hr, Laminarin + virus",10.994
same,RQ2,"[2]; 72 hr, Laminarin + virus",19.941
same,RQ3,"[2]; 72 hr, Laminarin + virus",16.529
same,RQ mean,"[2]; 72 hr, Laminarin + virus",15.821
same,RQ1,"[2]; 72 hr, Laminarin alone",28.092
same,RQ2,"[2]; 72 hr, Laminarin alone",16.708
same,RQ3,"[2]; 72 hr, Laminarin alone",22.307
same,RQ mean,"[2]; 72 hr, Laminarin alone",22.369
